This is an account of results in article PMC6985242, “Effect of Amoxicillin in combination with Imipenem-Relebactam against Mycobacterium abscessus” (Scientific Reports, 2020).

SMILES strings stand for the structures.

Type in all cases: biochemical
Experiment [1] addresses T1, BlaMab (M. abscessus endogenous class A beta-lactamase) (Mycobacteroides abscessus, UniProt B1MCI3).
T1 construct: gene MAB_2875; -30 residue N-terminal truncated protein, 6x-His tagged
The experiment can be described thus: TLC turnover assay with recombinant BlaMab.

The target of experiment [2] is T1, BlaMab (M. abscessus endogenous class A beta-lactamase). The experiment can be described thus: spectrophotometric hydrolysis at […] nm, Michaelis-Menten (Km across […] relebactam).
For experiment [3] the target is unchanged. The experiment can be described thus: nitrocefin hydrolysis kinetics (Ki app, k2/Ki, koff) with recombinant BlaMab; TLC penicillin V assay.

T1 sequence (B1MCI3 entry or part of it): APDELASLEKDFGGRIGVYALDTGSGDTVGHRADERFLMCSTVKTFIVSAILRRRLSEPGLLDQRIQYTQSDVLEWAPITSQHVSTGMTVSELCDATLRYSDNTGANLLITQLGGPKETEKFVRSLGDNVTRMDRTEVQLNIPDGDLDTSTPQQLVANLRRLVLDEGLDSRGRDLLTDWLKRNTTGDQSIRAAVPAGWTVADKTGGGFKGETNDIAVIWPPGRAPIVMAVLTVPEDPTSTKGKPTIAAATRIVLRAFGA

As for `CC1(C)S[C@@H]2[C@H](NC(=O)COc3ccccc3)C(=O)N2[C@H]1C(=O)O` [PenV, penicillin V], the “TLC turnover assay with recombinant BlaMab” value in experiment [1] is “The hydrolysis of penicillin V to penicilloic acid by BlaMab resulted in a spot with reduced Rf value”. For `O=C(Cc1cccs1)N[C@@H]1C(=O)N2C(C(=O)O)=C(/C=C/c3ccc([N+](=O)[O-])cc3[N+](=O)[O-])CS[C@H]12` [nitrocefin], the Km in experiment [2] is listed as 69.43–16.96 µM.

On to `O=C(NC1CCNCC1)[C@@H]1CC[C@@H]2CN1C(=O)N2OS(=O)(=O)O` [REL, relebactam], for which the Ki in experiment [3] amounted to 184 nM.
